Experiment [1] deals with blood glucose. The experiment can be described thus: Plasma glucose levels in Type 2 diabetic cynomolgus monkeys. Type of experiment: in vivo. The note with it: one-time s.c. injection; Abextide II 165 ug/kg, albiglutide 0.9 mg/kg; compared to placebo. The protocol: (§1) The efficacy and pharmacokinetics of MEB-C3-Cys40-Extendin 4 (Abextide II) was studied in primates. Nine Type 2 diabetic cynomolgus monkeys were separated into 3 groups and each group was injected with one of albiglutide (positive control, 0.9 mg/kg), Abextide II (165 μg/kg), or a saline placebo, as a one-time subcutaneous injection. The structure of Abextide II is shown below.
(§2) Plasma glucose levels and body weight were measured, and an intravenous glucose tolerance test (IVGTT) was also performed to assess the efficacy and pharmacokinetics of the compounds.

In experiment [2] the test system is plasma glucose. The experiment can be described thus: Intravenous glucose tolerance test (IVGTT) in Type 2 diabetic cynomolgus monkeys. The class given is in vivo. The settings on record: plasma glucose at 0, 5, 15 and 30 min; 2 hours after treatment vs one week before. Here is the method: as §1, §2
Intravenous glucose tolerance test was performed on all animals one week before (baseline) and 2 hours after treatment. […] The areas under curve (AUCs) of the plasma glucose level at 0, 5, 15 and 30 min were calculated to quantify IVGTT.

With Albiglutide, the “reduction of blood glucose level” value in experiment [1] is on record as “unable to reduce blood glucose level”. Also, in experiment [2], the “IVGTT area under curve (AUC) of plasma glucose level versus baseline before treatment” value is listed as “significant differences were not observed”.

The values above are taken from patent US10709790B2, “Chemical conjugates of Evans Blue derivatives and their use in the production of long-acting therapeutics” (THE UNITED STATES OF AMERICA, AS REPRESENTED BY THE …, priority 2015, dated 2020).
